Literature values as cited in patent publication US11670410B1, “Systems and methods to automatically administer a psychoactive substance to an airway of a user based on a detected event or condition” (priority 2022, dated 2023).

Key:
[1] = galantamine consumed orally
[2] = nose-to-brain device, protocol dose 1 mg
[3] = @ 5 min., protocol dose 1.0 mg
[4] = inhaled after vaporization; protocol dose 10 mcg/Kg

## COc1ccc2c3c1O[C@H]1C[C@@H](O)C=C[C@@]31CCN(C)C2 [Galantamine, galantamine]
[1]
  Tmax: ~1.5 h
[2]
  PK-Intranasal Tmax: 0.5 to 0.75 h

## CC[C@H](C)[C@@H]1NC(=O)[C@H](Cc2ccc(O)cc2)NC(=O)[C@@H](N)CSSC[C@@H](C(=O)N2CCC[C@H]2C(=O)N[C@@H](CC(C)C)C(=O)NCC(N)=O)NC(=O)[C@H](CC(N)=O)NC(=O)[C@H](CCC(N)=O)NC1=O [Oxytocin, oxytocin]
[3]
  PK-Intranasal olfactory bulb concentration: > 0 @ 5 min.

## COC(=O)[C@@H]1C[C@H](OC(C)=O)C(=O)[C@H]2[C@@]1(C)CC[C@H]1C(=O)O[C@H](c3ccoc3)C[C@]21C [Salvinorin A, salvinorin A]
[4]
  PK-Inhaled Tmax: Tmax = 2 min.
